Values of other authors as cited in patent US20070027107A1, “Compositions and methods for treating estrogen-dependent diseases and conditions” (priority 2005, published 2007).

Conditions: free carboxylic acids (without counterion) of alginate residues

Row | SMILES | pKa
1 | O=C[C@@H](O)[C@@H](O)[C@H](O)[C@@H](O)C(=O)O [G, L-guluronic acid] | 3.65
2 | O=C[C@@H](O)[C@@H](O)[C@H](O)[C@H](O)C(=O)O [M, D-mannuronic acid] | 3.38
